Converted amounts (≈) assume the structure as drawn. Where two headings read alike, the source gives them in different places. Bridge positions count the residues as written; N and C are the ends. Square brackets hold non-standard residues; d marks the D form. Peptide text beside a SMILES is read from it. * marks the point of attachment. X1 = CC[C@H](C)CCCCC(=O)*; Dab = NCC[C@H](N)C(=O)O
What was measured:
Type in all cases: cell-based, Klebsiella pneumoniae
K. pneumoniae IMT40061 [1] = assay: microbe, parasite or virus in culture
Description: (§1) Three different strains of K. pneumoniae were investigated in this study which were originally isolated from a human, a pig and a dog (Table 2) and characterized in previous studies ([Krieger et al., 2021]; [Krieger et al., 2022]). Minimum inhibitory concentration (MIC) values were determined according to EUCAST guidelines by microdilution test and are shown in Supplementary Table S1.
(§2) Table S1 Minimum inhibitory concentration (MIC) values of the three K. pneumoniae strains,
(§3) determined according to EUCAST guidelines by microdilution test.
(§4) MIC [µg/mL] of indicated antibiotics

[2] = tested on: K. pneumoniae 42KC-108224-1; assay: microbe, parasite or virus in culture
Description: as §1, §2, §3, §4

K. pneumoniae 17349 [3] = assay: microbe, parasite or virus in culture
Description: as §1, §2, §3, §4

[4] = tested on: K. pneumoniae 42KC-108224-1; assay: crystal violet assay, biofilm formation upon AMP treatment; conditions: for biofilm mass (crystal violet), percentage of the growth control: 16 μg/mL, 22 h, 37°C, 50% BHI, mean, n ≥ 3; for biofilm formation inhibited to: concentration not given
Description: (§5) To quantify biofilm formation, the crystal violet assay was done as described previously ([Sager et al., 2015]). Specifically, bacteria were grown in 10 mL BHI broth for 18 h at 37°C on a shaking platform (120 rpm). Subsequently 100 μL of a 1:100 dilution of this overnight culture in BHI was transferred to 96-well plates and incubated for 24 h at 37°C. Wells with BHI broth only were used as blank. Five replicates were investigated per strain. After incubation the suspension was discarded, plates were washed three times with tap water and air-dried. Subsequently, 100 μL of 1% crystal violet (T123.1, Th. Geyer GmbH & Co. KG, Renningen, Germany) in distilled water was added to each well and incubated for 15 min at room temperature before rinsing the plates four times with tap water and air-drying them again. One hundred μL of 99% ethanol were added to each well for 15 min at room temperature to dissolve the remaining crystal violet. Subsequently, the optical density at 540 nm (OD540) was measured using the BioTek Synergy H1 microplate reader to quantify biofilm mass remaining in the wells. OD values of the blank were subtracted from all the samples. Each experiment was conducted three times.
(§6) To determine the effect of the AMPs on biofilm formation of K. pneumoniae, a standardized bacterial suspension and serial dilutions of antimicrobial agents were incubated together as conducted for determination of planktonic growth. After incubation the crystal violet assay was performed as described above. The percentage of biofilm formation was calculated based on the growth control. The experiment was conducted at least three times.

[5] = tested on: K. pneumoniae 42KC-108224-1; assay: fluorescence assay on mature biofilms (SYTO 9 / propidium iodide); conditions: 24 h treatment of mature biofilm; strongest reduction, concentration not given
Description: The proportion of living and dead bacteria was determined using the fluorescence assay FilmTracer™ LIVE/DEAD biofilm viability kit (L10316, Life Technologies GmbH, Darmstadt, Germany). A bacterial count of 2 × 10^7 CFU/mL was inoculated in 50% BHI broth, 100 μL were added to a 96-well plate in duplicate and plates were incubated for 22 h at 37°C. Wells containing only BHI broth were used as blank. After incubation, the supernatant was discarded and plates were washed three times with sterile PBS. […] After incubation for 24 h at 37°C and washing three times with sterile PBS, 50 μL filter-sterilized water containing 0.15 μL each of SYTO™ 9 stain and propidium iodide stain was added to each well. Plates were incubated for 20 min at room temperature in the dark. The staining solution was discarded and the plates were washed three times with sterile PBS. The fluorescence intensity of the SYTO™ 9 stain (λex = 470 nm, λem = 500 nm) and the propidium iodide stain (λex = 490 nm, λem = 635 nm) were measured on a BioTek Synergy H1 microplate reader and corrected for the blank values. The percentage of fluorescence intensity was calculated based on the negative control. The SYTO™ 9/propidium iodide ratio was calculated. The experiment was conducted at least three times.

[6] = tested on: all three K. pneumoniae strains; assay: crystal violet assay, biofilm formation, statements on all three strains; conditions: for biofilm mass, % of the untreated control: all three strains, concentration not given
Description: as §5, §6

K. pneumoniae 17349 [7] = assay: crystal violet assay, biofilm formation upon AMP treatment; conditions: 22 h, 37°C, 50% BHI, mean, n ≥ 3
Description: as §5, §6

K. pneumoniae 17349 [8] = assay: resazurin assay, metabolic activity of biofilm; conditions: 16 μg/mL; 22 h co-incubation, 37°C, 50% BHI; n ≥ 3
Description: Biofilm viability was quantified using the resazurin assay as previously described ([Fontoura et al., 2023]) with minor modifications. A standardized bacterial suspension and serial dilutions of antimicrobial agents were incubated together as conducted for determination of planktonic growth and biofilm formation. After incubation, the bacterial suspension was discarded and plates were washed three times with sterile PBS. One hundred microliters of sterile PBS containing 2 μL of resazurin (6.75 mg/mL, in sterile PBS; R7017-1G, Merck KGaA, Darmstadt, Germany) were added per well. After an incubation of 3–5 h at 37°C fluorescence intensity was measured with an excitation wavelength (λex) of 528 nm and an emission wavelength (λem) of 645 nm by BioTek Synergy H1 microplate reader. Measured values of the blank were subtracted from all the samples. The percentage of metabolic activity was calculated based on the growth control. The experiment was conducted at least three times.

K. pneumoniae IMT40061 [9] = assay: crystal violet assay, biofilm formation upon AMP treatment; conditions: 16 μg/mL; 22 h, 37°C, 50% BHI; mean, n ≥ 3
Description: as §5, §6

[10] = EUCAST guidelines, microdilution test
[11] = Klebsiella pneumoniae, IMT40061, EUCAST guidelines, microdilution test, read-out: MIC
[12] = Klebsiella pneumoniae, 42KC1082241, EUCAST guidelines, microdilution test, read-out: MIC
[13] = Klebsiella pneumoniae, 17349, EUCAST guidelines, microdilution test, read-out: MIC
[14] = Klebsiella pneumoniae, 42KC1082241
[15] = Klebsiella pneumoniae, IMT40061

Row | Compound | MIC (K. pneumoniae IMT40061 [1]; [11]) | MIC [2, 12] | MIC (K. pneumoniae 17349 [3]; [13]) | other results
1 | Ampicillin/Sulbactam | – | – | – | MIC (K. pneumoniae IMT40061 [1]; [10]): > 32/4; MIC [2, 10]: 8/4; MIC (K. pneumoniae 17349 [3]; [10]): 1/4
2 | CC(C)(O/N=C(\C(=O)N[C@@H]1C(=O)N2C(C(=O)[O-])=C(C[n+]3ccccc3)CS[C@H]12)c1csc(N)n1)C(=O)O [Ceftazidime] | > 32 µg/mL | < 0.25 µg/mL | < 0.25 µg/mL | –
3 | CC1(C)S[C@@H]2[C@H](NC(=O)[C@H](N)c3ccccc3)C(=O)N2[C@H]1C(=O)O [Ampicillin] | > 32 µg/mL | > 32 µg/mL | 16 µg/mL (≈ 45.8 µM) | –
4 | NC[C@H]1O[C@H](O[C@H]2[C@H](O)[C@@H](O[C@H]3O[C@H](CO)[C@@H](O)[C@H](N)[C@H]3O)[C@H](N)C[C@@H]2N)[C@H](N)C[C@@H]1O [Tobramycin] | 4 µg/mL (≈ 8.56 µM) | 0.25 µg/mL (≈ 0.535 µM) | < 0.125 µg/mL | –
5 | C[C@H]1[C@H](NC(=O)/C(=N\OC(C)(C)C(=O)O)c2csc(N)n2)C(=O)N1S(=O)(=O)O [Aztreonam] | > 16 µg/mL | < 0.25 µg/mL | < 0.25 µg/mL | –
6 | CCN1CCN(C(=O)N[C@@H](C(=O)N[C@@H]2C(=O)N3[C@@H]2SC(C)(C)[C@@H]3C(=O)O)c2ccccc2)C(=O)C1=O [Piperacillin] | > 64 µg/mL | 4 µg/mL (≈ 7.73 µM) | 2 µg/mL (≈ 3.86 µM) | –
7 | VDKPPYLPRPRPPRrIYNr-NH2 [Onc112, Insect-derived proline-rich AMP, derivate of Oncopeltus antibacterial peptide 4] | – | – | – | biofilm mass (crystal violet), percentage of the growth control [4]: 26%; biofilm formation inhibited to [4]: 26%; viable biofilm mass (SYTO™ 9) [5]: 55%
8 | C[C@H]1c2cccc(O)c2C(=O)C2=C(O)[C@]3(O)C(=O)C(C(N)=O)=C(O)[C@@H](N(C)C)[C@@H]3[C@@H](O)[C@@H]21 [Doxycycline] | 4 µg/mL (≈ 9 µM) | 1 µg/mL (≈ 2.25 µM) | 0.5 µg/mL (≈ 1.13 µM) | –
9 | CC[C@H](C)CCCCC(=O)N[C@@H](CCN)C(=O)N[C@H](C(=O)N[C@@H](CCN)C(=O)N[C@H]1CCNC(=O)[C@H]([C@@H](C)O)NC(=O)[C@H](CCN)NC(=O)[C@H](CCN)NC(=O)[C@H](CC(C)C)NC(=O)[C@@H](CC(C)C)NC(=O)[C@H](CCN)NC1=O)[C@@H](C)O [Colistin] (X1-[Dab]T[Dab][Dab][Dab][dL]L[Dab][Dab]T; lactam 4-C (inferred); N-terminus assumed) | – | – | – | MIC (K. pneumoniae IMT40061 [1]; [10]): < 0.0625 µg/mL; MIC [2, 10]: 0.25 µg/mL (≈ 0.214 µM); MIC (K. pneumoniae 17349 [3]; [10]): 0.25 µg/mL (≈ 0.214 µM)
10 | O=C(O)c1cn(C2CC2)c2cc(N3CCNCC3)c(F)cc2c1=O [Ciprofloxacin] | > 4 µg/mL | – | – | MIC [2, 14]: 0.0625 µg/mL (≈ 0.189 µM); MIC (K. pneumoniae 17349 [3]; Klebsiella pneumoniae, 17349): < 0.0312 µg/mL
11 | GIINTLQKYYCRVRGGRCAVLSCLPKEEQIGKCSTRGRKCCRRKK [hbD3, Human defensin, purchased from PeptaNova GmbH] | – | – | – | biofilm mass, % of the untreated control [6]: less than 40%; biofilm mass reduced to ([6]; concentration and strain not given): ≤ 28%
12 | Piperacillin/Tazobactam | – | – | – | MIC (K. pneumoniae IMT40061 [1]; [10]): > 64/4; MIC [2, 10]: 1/4; MIC (K. pneumoniae 17349 [3]; [10]): 1/4
13 | VDKPPYLPRPRPPROIYNO-NH2 [Onc72, Insect-derived proline-rich AMP, derivate of Oncopeltus antibacterial peptide 4] | – | – | – | biofilm mass (crystal violet), percentage of the growth control [4]: 36%; biofilm formation inhibited to [4]: 36%; viable biofilm mass (SYTO™ 9) [5]: 51%
14 | LLGDFFRKSKEKIGKEFKRIVQRIKDFLRNLVPRTES-OH [LL-37, Human cathelicidin, purchased from GENAXXON bioscience GmbH] | – | – | – | biofilm mass (crystal violet), percentage of the growth control (K. pneumoniae 17349 [7]; 0.5 μg/mL): 140%; biofilm mass (crystal violet), percentage of the growth control (K. pneumoniae 17349 [7]; 16 μg/mL): 13%; metabolic activity of the biofilm (resazurin), percentage of the growth control (K. pneumoniae 17349 [8]): 30%; biofilm mass, % of the untreated control [6]: less than 40%
15 | KRFRIRVRV-NH2 [compound 1037, Synthetic antimicrobial peptide] | – | – | – | biofilm mass (crystal violet), percentage of the growth control (K. pneumoniae IMT40061 [9]): 67%; biofilm mass (crystal violet), percentage of the growth control [4]: 53%; viable biofilm mass (SYTO™ 9) [5]: 43%
16 | C[C@@H](O)[C@H]1C(=O)N2C(C(=O)O)=C(S[C@@H]3CN[C@H](C(=O)N(C)C)C3)[C@H](C)[C@H]12 [Meropenem] | – | – | – | MIC (K. pneumoniae IMT40061 [1]; [15]): < 0.125 µg/mL; MIC [2, 14]: < 0.125 µg/mL; MIC (K. pneumoniae 17349 [3]; Klebsiella pneumoniae, 17349): < 0.125 µg/mL
17 | CO/N=C(\C(=O)N[C@@H]1C(=O)N2C(C(=O)O)=C(COC(N)=O)CS[C@H]12)c1ccco1 [Cefuroxime] | > 32 µg/mL | 2 µg/mL (≈ 4.71 µM) | 1 µg/mL (≈ 2.36 µM) | –
18 | C[C@@H](O)[C@H]1C(=O)N2C(C(=O)O)=C(SCCN=CN)C[C@H]12 [Imipenem] | – | – | – | MIC (K. pneumoniae IMT40061 [1]; [15]): < 0.125 µg/mL; MIC [2, 14]: < 0.125 µg/mL; MIC (K. pneumoniae 17349 [3]; Klebsiella pneumoniae, 17349): < 0.125 µg/mL
19 | CO/N=C(\C(=O)N[C@@H]1C(=O)N2C(C(=O)O)=C(COC(C)=O)CS[C@H]12)c1csc(N)n1 [Cefotaxime] | > 8 µg/mL | < 0.0625 µg/mL | < 0.0625 µg/mL | –
20 | NCC[C@H](O)C(=O)N[C@@H]1C[C@H](N)[C@@H](O[C@H]2O[C@H](CN)[C@@H](O)[C@H](O)[C@H]2O)[C@H](O)[C@H]1O[C@H]1O[C@H](CO)[C@@H](O)[C@H](N)[C@H]1O [Amikacin] | 4 µg/mL (≈ 6.83 µM) | < 0.5 µg/mL | < 0.5 µg/mL | –
21 | CNC(C)C1CCC(N)C(OC2C(N)CC(N)C(OC3OCC(C)(O)C(NC)C3O)C2O)O1 (stereo not drawn) [Gentamicin] | 0.5 µg/mL (≈ 1.05 µM) | < 0.125 µg/mL | 0.25 µg/mL (≈ 0.523 µM) | –
22 | C[C@H]1COc2c(N3CCN(C)CC3)c(F)cc3c(=O)c(C(=O)O)cn1c23 [Levofloxacin] | > 8 µg/mL | – | – | MIC [2, 14]: < 0.0625 µg/mL; MIC (K. pneumoniae 17349 [3]; Klebsiella pneumoniae, 17349): < 0.0625 µg/mL
23 | COc1c(N2C[C@@H]3CCCN[C@@H]3C2)c(F)cc2c(=O)c(C(=O)O)cn(C3CC3)c12 [Moxifloxacin] | > 4 µg/mL | 0.0625 µg/mL (≈ 0.156 µM) | 0.25 µg/mL (≈ 0.623 µM) | –

Reference: PMC12021911, “Comparative evaluation of antimicrobial peptides: effect on formation, metabolic activity and viability of Klebsiella pneumoniae biofilms” (Frontiers in Microbiology, 2025)
